“And” between values parts separate entries of the source, which are not always exact repeats. Identical values can stand only once.
What follows are compounds tested against ROCK2 (Homo sapiens (Human), UniProt O75116) (assay: Inhibition of ROCK2 (Rho kinase inhibition assay; ROCK-II Assay Kit / IMAP)). Details: FIG. 10 legend; ROCK2 versus ROCK1 and PKC.
Format: biochemical
Excerpt: (§1) Methods of determining kinase inhibition are well known in the art. For example, kinase activity of an enzyme and the inhibitory capacity of a test compound can be determined by measuring enzyme specific phosphorylation of a substrate. Commercial assays and kits can be employed. For example, kinase inhibition can be determined using an IMAP® assay (Molecular Devices). This assay method involves the use of a fluorescently-tagged peptide substrate. Phosphorylation of the tagged peptide by a kinase of interest promotes binding of the peptide to a trivalent metal-based nanoparticle via the specific, high affinity interaction between the phospho-group and the trivalent metal. Proximity to the nanoparticle results in increased fluorescence polarization. Inhibition of the kinase by a kinase inhibitor prevents phosphorylation of the substrate and thereby limits binding of the fluorescently-tagged substrate to the nanoparticle. Such an assay can be compatible with a microwell assay format, allowing simultaneous determination of IC50 of multiple compounds.
ROCK-II inhibitory activity can be measured using the ROCK-II Assay Kit (Molecular Devices, inc.; Sunnyvale, Calif.).
(§2) Inhibition of ROCK2 by various compounds was determined.
(§3) Inhibitory activity for Rho kinase was determined for examples of compounds of the present invention. Inhibition of Rho kinase can be assayed as described. For each of these compounds their inhibitory activity for both ROCK 1 and ROCK 2 was determined. […] The IC50 values (in μM) for each of these compounds show a selectivity for inhibiting ROCK2.

ROCK2, sequence (O75116 whole entry, species assumed): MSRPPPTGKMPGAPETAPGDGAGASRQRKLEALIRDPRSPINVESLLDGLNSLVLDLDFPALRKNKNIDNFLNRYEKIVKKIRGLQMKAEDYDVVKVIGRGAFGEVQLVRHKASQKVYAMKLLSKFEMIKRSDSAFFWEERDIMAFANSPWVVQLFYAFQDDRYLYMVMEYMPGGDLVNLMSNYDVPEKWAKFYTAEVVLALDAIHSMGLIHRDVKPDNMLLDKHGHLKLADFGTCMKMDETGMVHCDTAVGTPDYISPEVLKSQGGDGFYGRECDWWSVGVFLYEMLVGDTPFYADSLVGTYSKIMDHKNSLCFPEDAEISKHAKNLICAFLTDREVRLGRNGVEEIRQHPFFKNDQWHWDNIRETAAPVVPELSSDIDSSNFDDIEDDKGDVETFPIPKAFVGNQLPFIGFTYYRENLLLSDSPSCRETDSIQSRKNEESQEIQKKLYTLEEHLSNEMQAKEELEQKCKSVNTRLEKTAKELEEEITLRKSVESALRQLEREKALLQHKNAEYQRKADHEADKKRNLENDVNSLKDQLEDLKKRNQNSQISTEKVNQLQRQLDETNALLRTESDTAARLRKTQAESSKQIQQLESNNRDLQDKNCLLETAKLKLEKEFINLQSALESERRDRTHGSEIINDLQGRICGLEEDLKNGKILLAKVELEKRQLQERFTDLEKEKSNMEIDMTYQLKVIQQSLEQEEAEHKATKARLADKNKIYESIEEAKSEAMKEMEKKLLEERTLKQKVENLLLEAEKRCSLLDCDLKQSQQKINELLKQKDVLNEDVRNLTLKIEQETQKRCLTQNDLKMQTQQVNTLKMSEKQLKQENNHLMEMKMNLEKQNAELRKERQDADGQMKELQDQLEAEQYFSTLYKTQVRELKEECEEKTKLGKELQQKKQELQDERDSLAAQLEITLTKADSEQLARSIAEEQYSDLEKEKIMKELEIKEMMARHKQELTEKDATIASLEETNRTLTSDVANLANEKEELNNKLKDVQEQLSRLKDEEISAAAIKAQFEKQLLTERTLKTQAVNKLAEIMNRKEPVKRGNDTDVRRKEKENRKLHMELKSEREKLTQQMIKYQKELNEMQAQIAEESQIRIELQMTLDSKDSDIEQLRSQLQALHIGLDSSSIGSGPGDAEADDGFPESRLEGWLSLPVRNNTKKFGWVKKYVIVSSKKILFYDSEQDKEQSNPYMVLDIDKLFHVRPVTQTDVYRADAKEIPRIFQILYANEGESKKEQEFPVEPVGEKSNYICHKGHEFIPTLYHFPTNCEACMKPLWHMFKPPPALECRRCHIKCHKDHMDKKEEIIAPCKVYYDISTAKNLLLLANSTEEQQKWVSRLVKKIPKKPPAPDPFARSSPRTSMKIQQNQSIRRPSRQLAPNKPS

**Q.** For CC(C)NC(=O)COc1cccc(-c2nc(Nc3ccc4[nH]ncc4c3)c3ccccc3n2)c1 [Example 82, 2-(3-(4-(1H-indazol-5-ylamino)quinazolin-2-yl)phenoxy)-N-isopropylacetamide], which “Specificity of kinase inhibition (FIG. 10)” value is on record?
**A.** specific inhibition of ROCK2

**Q.** For C[C@@H](N)[C@H]1CC[C@H](C(=O)Nc2ccncc2)CC1 [Example Y27632, reference compound], which “Specificity of kinase inhibition (FIG. 10)” value is on record?
**A.** inhibits both ROCK1 and ROCK2, as well as PKC

Same assay, conditions: Table 1; repeat determinations

**Q.** How did the IC50 turn out when CCCC(=O)Nc1cccc(-c2nc(Nc3ccc4[nH]ncc4c3)c3cc(OCCN4CCCC4=O)c(OC)cc3n2)c1 [Example 206, N-(3-(4-(1H-indazol-5-ylamino)-7-methoxy-6-(2-(2-oxopyrrolidin-1-yl)ethoxy)quinazolin-2-yl)phenyl)butyramide] was run?
**A.** 0.048 µM and 0.064 µM

**Q.** Which IC50 does the source give for CCCC(=O)Nc1ccccc1-c1nc(Nc2ccc3[nH]ncc3c2)c2ccccc2n1 [Example 212] here?
**A.** > 100 µM

**Q.** With COCCNC(=O)COc1ccccc1-c1nc(N(CC(=O)NCCOC)c2ccc3[nH]ncc3c2)c2ccccc2n1 [Example 238] as the compound, how does the IC50 read?
**A.** > 100 µM

**Q.** For COc1ccccc1-c1nc(Nc2ccc3[nH]ncc3c2)c2ccccc2n1 [Example 239], which IC50 is on record?
**A.** > 100 µM

**Q.** With O=C(CN1CCCC1)Nc1ccccc1-c1nc(Nc2ccc3[nH]ncc3c2)c2ccccc2n1 [Example 217] as the compound, how does the IC50 read?
**A.** 36 µM

**Q.** How did the IC50 turn out when CCCCC(=O)Nc1cccc(-c2nc(Nc3ccc4[nH]ncc4c3)c3ccccc3n2)c1 [Example 259] was run?
**A.** 0.029 µM

**Q.** How did the IC50 turn out when CCCC(=O)Nc1cccc(-c2nc(Nc3ccc4[nH]ncc4c3)c3cc(OCCN4CCC(O)C4)ccc3n2)c1 (centres unmarked) [Example 205, N-(3-(4-(1H-indazol-5-ylamino)-6-(2-(3-hydroxypyrrolidin-1-yl)ethoxy)-quinazolin-2-yl)phenyl)butyramide] was run?
**A.** 0.011 µM and 0.012 µM and 0.008 µM and 0.013 µM

**Q.** For CCCC(=O)Nc1cccc(-c2nc(Nc3ccc4[nH]ncc4c3)c3cc(OCC4CC4)ccc3n2)c1 [Example 258], which IC50 is on record?
**A.** 0.255 µM and 0.182 µM

**Q.** How did the IC50 turn out when O=C(Nc1ccccc1-c1nc(Nc2ccc3[nH]ncc3c2)c2ccccc2n1)c1ccoc1 [Example 216] was run?
**A.** > 100 µM

**Q.** COC(=O)Nc1ccccc1-c1nc(Nc2ccc3[nH]ncc3c2)c2ccccc2n1 [Example 219] was tested. Which IC50 did it give?
**A.** 2.9 µM

**Q.** With CCCC(=O)Nc1cccc(-c2nc(Nc3ccc4[nH]ncc4c3)c3cc(OCCN4CC[C@H](N(C)C)C4)c(OC)cc3n2)c1 [Example 210, N-(3-(4-(1H-indazol-5-ylamino)-6-(2-((S)-3-(dimethylamino)pyrrolidin-1-yl)ethoxy)-7-methoxyquinazolin-2-yl)phenyl)butyramide] as the compound, how does the IC50 read?
**A.** 0.018 µM and 0.01 µM

**Q.** How did the IC50 turn out when CCCC(=O)Nc1cccc(-c2nc(Nc3ccc4[nH]ncc4c3)c3cc(OCCN4CCN(C)CC4)ccc3n2)c1 [Example 203, N-(3-(4-(1H-indazol-5-ylamino)-6-(2-(4-methylpiperazin-1-yl)ethoxy)-quinazolin-2-yl)phenyl)butyramide] was run?
**A.** 0.012 µM and 0.0095 µM

**Q.** With O=C(COc1ccccc1-c1nc(N(CC(=O)NCC2CC2)c2ccc3[nH]ncc3c2)c2ccccc2n1)NCC1CC1 [Example 235] as the compound, how does the IC50 read?
**A.** > 100 µM

**Q.** How did the IC50 turn out when CN(C)CCC(=O)Nc1ccccc1-c1nc(Nc2ccc3[nH]ncc3c2)c2ccccc2n1 [Example 224] was run?
**A.** 5.3 µM

**Q.** With CC(=O)Oc1ccccc1-c1nc(Nc2ccc3[nH]ncc3c2)c2ccccc2n1 [Example 240] as the compound, how does the IC50 read?
**A.** 23 µM

**Q.** Which IC50 does the source give for O=C(Nc1ccccc1-c1nc(Nc2ccc3[nH]ncc3c2)c2ccccc2n1)N1CCOCC1 [Example 220] here?
**A.** > 100 µM

**Q.** How did the IC50 turn out when CN(C)C(=O)Nc1ccccc1-c1nc(Nc2ccc3[nH]ncc3c2)c2ccccc2n1 [Example 221] was run?
**A.** 49 µM

**Q.** O=C(CN1CCOCC1)Nc1ccccc1-c1nc(Nc2ccc3[nH]ncc3c2)c2ccccc2n1 [Example 231] was tested. Which IC50 did it give?
**A.** > 3 µM

**Q.** Oc1ccc2nc(-c3ccccc3)nc(Nc3ccc4[nH]ncc4c3)c2c1 [Example 267] was tested. Which IC50 did it give?
**A.** 3.9 µM

**Q.** How did the IC50 turn out when COCC(=O)Nc1ccccc1-c1nc(Nc2ccc3[nH]ncc3c2)c2ccccc2n1 [Example 225] was run?
**A.** 1.7 µM

**Q.** With CC(C)NC(=O)CNc1cccc(-c2nc(Nc3ccc4[nH]ncc4c3)c3ccccc3n2)c1 [Example 230] as the compound, how does the IC50 read?
**A.** > 3 µM

**Q.** For COCCNC(=O)COc1ccccc1-c1nc(Nc2ccc3[nH]ncc3c2)c2ccccc2n1 [Example 234], which IC50 is on record?
**A.** > 100 µM

**Q.** With COCCN(C)CC(=O)Nc1ccccc1-c1nc(Nc2ccc3[nH]ncc3c2)c2ccccc2n1 [Example 213] as the compound, how does the IC50 read?
**A.** > 100 µM

**Q.** Which IC50 does the source give for Oc1ccccc1-c1nc(Nc2ccc3[nH]ncc3c2)c2ccccc2n1 [Example 233] here?
**A.** 2 µM and 2.5 µM

**Q.** O=C(Nc1ccccc1-c1nc(Nc2ccc3[nH]ncc3c2)c2ccccc2n1)C1CCCNC1 (centres unmarked) [Example 218] was tested. Which IC50 did it give?
**A.** > 100 µM

**Q.** Which IC50 does the source give for CC(C)NC(=O)COc1ccccc1-c1nc(Nc2ccc3[nH]ncc3c2)c2ccccc2n1 [Example 232] here?
**A.** > 100 µM

**Q.** With CNCC(=O)Nc1ccccc1-c1nc(Nc2ccc3[nH]ncc3c2)c2ccccc2n1 [Example 215] as the compound, how does the IC50 read?
**A.** 17 µM and > 10 µM

**Q.** Which IC50 does the source give for O=C(Nc1ccccc1-c1nc(Nc2ccc3[nH]ncc3c2)c2ccccc2n1)c1ccccn1 [Example 223] here?
**A.** > 100 µM

**Q.** For CC(C)(C)C(=O)Nc1ccccc1-c1nc(Nc2ccc3[nH]ncc3c2)c2ccccc2n1 [Example 214], which IC50 is on record?
**A.** > 100 µM

**Q.** CCCC(=O)Nc1cccc(-c2nc(Nc3ccc4[nH]ncc4c3)c3cc(OCCN4CCN(C)CC4)c(OC)cc3n2)c1 [Example 209, N-(3-(4-(1H-indazol-5-ylamino)-7-methoxy-6-(2-(4-methylpiperazin-1-yl)ethoxy)quinazolin-2-yl)phenyl)butyramide] was tested. Which IC50 did it give?
**A.** 0.016 µM and 0.014 µM

**Q.** For CCCC(=O)Nc1cccc(-c2nc(Nc3ccc4c(cnn4C)c3)c3cc(OCCN(C)C)ccc3n2)c1 [Example 243], which IC50 is on record?
**A.** > 0.3 µM

**Q.** CCCC(=O)Nc1cccc(-c2nc(Nc3ccc4[nH]ncc4c3)c3cc(OC)c(OCCOC)cc3n2)c1 [Example 262] was tested. Which IC50 did it give?
**A.** 0.024 µM

**Q.** With CCCC(=O)Oc1cccc(-c2nc(Nc3ccc4[nH]ncc4c3)c3ccccc3n2)c1 [Example 211] as the compound, how does the IC50 read?
**A.** 0.129 µM

**Q.** How did the IC50 turn out when CCCC(=O)Nc1cccc(-c2nc(Nc3ccc4c(cnn4C(=O)OC(C)(C)C)c3)c3cc(OCCOC)c(OC)cc3n2)c1 [Example 261] was run?
**A.** > 0.3 µM

**Q.** With O=C(Nc1ccccc1-c1nc(Nc2ccc3[nH]ncc3c2)c2ccccc2n1)c1ccncc1 [Example 222] as the compound, how does the IC50 read?
**A.** > 100 µM

**Q.** O=C(COc1ccccc1-c1nc(N(CC(=O)NCc2ccccc2)c2ccc3[nH]ncc3c2)c2ccccc2n1)NCc1ccccc1 [Example 236] was tested. Which IC50 did it give?
**A.** > 100 µM

**Q.** O=C(COc1ccccc1-c1nc(Nc2ccc3[nH]ncc3c2)c2ccccc2n1)NCc1ccccc1 [Example 237] was tested. Which IC50 did it give?
**A.** > 100 µM

**Q.** For c1ccc(-c2nc(Nc3ccc4[nH]ncc4c3)c3cc(OCCN4CCOCC4)ccc3n2)cc1 [Example 265], which IC50 is on record?
**A.** 6.5 µM and 7.3 µM

What follows are compounds tested against ROCK 1 (Homo sapiens (Human), UniProt Q13464) (assay: Inhibition of ROCK1 (Rho kinase inhibition assay)). Details: Tables 2.1-2.4.
Format: biochemical
Excerpt: as §1, §2, §3

ROCK 1, sequence (Q13464 whole entry, species assumed): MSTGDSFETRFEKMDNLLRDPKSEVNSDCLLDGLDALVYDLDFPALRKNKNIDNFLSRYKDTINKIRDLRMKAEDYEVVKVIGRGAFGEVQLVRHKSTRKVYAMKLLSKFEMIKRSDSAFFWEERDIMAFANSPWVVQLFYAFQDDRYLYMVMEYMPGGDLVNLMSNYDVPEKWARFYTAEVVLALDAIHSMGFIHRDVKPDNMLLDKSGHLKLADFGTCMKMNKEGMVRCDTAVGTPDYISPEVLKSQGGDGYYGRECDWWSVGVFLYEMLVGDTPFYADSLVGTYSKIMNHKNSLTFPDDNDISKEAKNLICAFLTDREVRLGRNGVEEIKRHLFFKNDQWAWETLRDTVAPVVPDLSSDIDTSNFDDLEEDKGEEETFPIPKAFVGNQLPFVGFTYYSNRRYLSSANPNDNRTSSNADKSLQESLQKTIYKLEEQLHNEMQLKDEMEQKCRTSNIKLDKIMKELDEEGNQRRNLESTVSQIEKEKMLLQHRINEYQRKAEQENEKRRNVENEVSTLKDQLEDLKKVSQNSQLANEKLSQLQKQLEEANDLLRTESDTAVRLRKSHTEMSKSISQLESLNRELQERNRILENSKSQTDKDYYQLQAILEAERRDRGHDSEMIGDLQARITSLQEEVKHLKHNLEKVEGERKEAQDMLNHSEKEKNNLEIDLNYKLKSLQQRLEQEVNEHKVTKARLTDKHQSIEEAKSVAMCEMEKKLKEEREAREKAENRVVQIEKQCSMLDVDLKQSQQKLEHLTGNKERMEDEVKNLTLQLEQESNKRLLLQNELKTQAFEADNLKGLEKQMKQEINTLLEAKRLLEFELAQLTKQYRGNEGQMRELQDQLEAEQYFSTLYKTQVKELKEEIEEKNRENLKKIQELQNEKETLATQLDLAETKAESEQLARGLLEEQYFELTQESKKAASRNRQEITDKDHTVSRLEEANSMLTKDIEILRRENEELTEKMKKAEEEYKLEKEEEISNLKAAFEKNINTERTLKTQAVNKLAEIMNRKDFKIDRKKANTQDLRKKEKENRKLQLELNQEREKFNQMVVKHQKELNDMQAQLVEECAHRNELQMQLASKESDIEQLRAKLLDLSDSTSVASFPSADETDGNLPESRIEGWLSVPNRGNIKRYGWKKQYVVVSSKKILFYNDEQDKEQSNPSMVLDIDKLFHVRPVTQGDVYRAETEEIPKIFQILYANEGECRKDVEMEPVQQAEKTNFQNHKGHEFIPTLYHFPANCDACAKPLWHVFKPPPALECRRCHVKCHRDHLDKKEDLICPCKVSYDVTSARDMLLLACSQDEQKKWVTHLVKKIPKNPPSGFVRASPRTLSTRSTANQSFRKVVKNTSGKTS

**Q.** With CCCC(=O)Nc1cccc(-c2nc(Nc3ccc4[nH]ncc4c3)c3cc(OCCN(C)C)ccc3n2)c1 [Example 141, N-(3-(4-(1H-indazol-5-ylamino)-6-(2-(dimethylamino)ethoxy)quinazolin-2-yl)phenyl)butyramide] as the compound, how does the IC50 read?
**A.** > 1 µM

**Q.** CCCC(=O)Nc1cccc(-c2nc(Nc3ccc4[nH]ncc4c3)c3cc(OCCCN4CCOCC4)c(OC)cc3n2)c1 [Example 160, N-(3-(4-(1H-indazol-5-ylamino)-7-methoxy-6-(3-morpholinopropoxy)quinazolin-2-yl)phenyl)butyramide] was tested. Which IC50 did it give?
**A.** > 3 µM

**Q.** Which IC50 does the source give for O=C(COc1cccc(-c2nc(Nc3ccc4[nH]ncc4c3)c3ccccc3n2)c1)Nc1cccnc1 [Example 55, 2-(3-(4-(1H-indazol-5-ylamino)quinazolin-2-yl)phenoxy)-N-(pyridin-3-yl)acetamide] here?
**A.** > 10 µM

**Q.** How did the IC50 turn out when CCCC(=O)Nc1cccc(-c2nc(Nc3ccc4[nH]ncc4c3)c3ccc(OCCOC)cc3n2)c1 [Example 263] was run?
**A.** > 3 µM

**Q.** For COc1cc2nc(-c3cccc(NC(=O)CN4CCOCC4)c3)nc(Nc3ccc4[nH]ncc4c3)c2cc1OCCN1CCCC1 [Example 167, N-(3-(4-(1H-Indazol-5-ylamino)-7-methoxy-6-(2-(pyrrolidin-1-yl)ethoxy)quinazolin-2-yl)phenyl)-2-morpholinoacetamide], which IC50 is on record?
**A.** > 3 µM

**Q.** Which IC50 does the source give for CC(=O)Oc1cccc(-c2nc(Nc3ccc4[nH]ncc4c3)c3ccccc3n2)c1 [Example 272] here?
**A.** > 10 µM

**Q.** With COCCNC(=O)COc1cccc(-c2nc(Nc3ccc4[nH]ncc4c3)c3ccccc3n2)c1 [Example 54, 2-(3-(4-(1H-indazol-5-ylamino)quinazolin-2-yl)phenoxy)-N-(2-methoxyethyl)acetamide] as the compound, how does the IC50 read?
**A.** > 10 µM

Reference: US8916576B2 (Surface Logix, Inc., priority 2005, dated 2014)
